Assay results from paper PMC6150237, “Study of Absorption Characteristics of the Total Saponins from Radix Ilicis Pubescentis in an In Situ Single-Pass Intestinal Perfusion (SPIP) Rat Model by Using Ultra Performance Liquid Chromatography (UPLC)” (Molecules : A Journal of Synthetic Chemistry and Natural …, 2017).

Assays:
[1] = test system: rat small intestine (duodenum, jejunum, ileum); assay: In situ single-pass intestinal perfusion (SPIP), saponins administrated in MDQ-TS form; assay type: in vivo; parameters: key: -: no absorption
Description: (§1) MDQ-TS perfusion samples at low, middle, and high concentration levels of 1.25, 2.5, and 5.0 mg·mL^−1 were prepared by separately dissolving MDQ-TS in the minimum amount of DMSO and diluted with K-R buffer solution. The amount of DMSO was 0.5% in the final perfusion solutions. C1, C2, C3, C4, DC1, and DC2 perfusion samples with the concentration equivalent to the amount contained in 2.5 mg·mL^−1 of MDQ-TS were individually prepared in the same way. Verapamil, amantadine and EDTA were directly dissolved in the MDQ-TS perfusate with terminal concentrations of 200 μmol·L^−1, 2.5 mmol·L^−1, and 2.5 mmol·L^−1, accordingly, and used for investigating the mechanisms involved for absorption.
(§2) In situ single-pass intestinal perfusion (SPIP) studies were performed using an experimental design adapted from the literature with some modifications. Briefly, male Sprague-Dawley rats weighing 180–220 g were acclimatized for at least one week before the experiment, and fasted for 18 h with free access to water before the perfusion experiment. Rats were anesthetized with an intraperitoneal injection of urethane (30 mg·kg^−1 body weight), and kept on a homeothermic blanket to maintain normal body temperature. The abdomen was opened with a midline longitudinal incision, and three segments of rat intestine (duodenum, jejunum, and ileum) of approximately 10 cm each were carefully cannulated on two ends with plastic tubing. Initially, the perfusion solution free of drug (37 °C) was pumped by peristaltic pump (BT100-1F, Longer Pump Co., Baoding, China) through the cannulated segments at a flow rate of 1 mL/min for approximately 30 min in order to clean out any residual debris. Secondly, the perfusion solution containing a known concentration of substance (C1, C2, C3, C4, DC1, DC2, and MDQ-TS) was perfused at 37 °C through the intestinal lumen at a constant flow rate of 0.2 mL/min. The first 20 min of period corresponds to steady state, i.e., when the substance is in equilibrium with the intestinal membrane. After steady state, samples were collected from distal portion of duodenum, jejunum and ileum at 10 min intervals (0–10, 10–20, 20–30, 30–40, 40–50, 50–60 min) in pre-weighted vials. Samples were immediately frozen at −20 °C until analysis by validated UPLC. During the experiment, care was taken to avoid disturbance of the circulatory system and the exposed segment was covered with a piece of sterilized gauze to keep it warm and moist by frequent application of warm (37 °C) saline. The intestinum tenue maintained its viability and intact state without disrupting the blood supply throughout the experimental period. Finally, animals were sacrificed after depth anesthesia by intraperitoneal injection of urethane, according to protocols for euthanasia in experimental animals. After death, the intestinal segment was removed for measurements of length and inside diameter.
(§3) The net water flux in the in situ perfusion studies (water absorption and efflux in the intestinal segment) was determined by gravimetric method. The effective absorption rate constant (Ka) and effective apparent permeability (Papp) of compounds in the intestinal segments were calculated according to the following mathematical expression:(1) Ka=(1−CoutQout/CinQin)Q/V (2) Papp=−Qln(CoutQout/CinQin)/2πrl where Cin and Cout are the concentration of test drug in the effluent perfusate through the inlet and outlet tube (μg·mL^−1), respectively. Qin and Qout represent the inlet and outlet volume of effluent perfusate (mL), respectively. Q is the volume flow rate of perfusion (mL·h^−1). V is the volume of the intestinal segment concerned (mL). 2πrl is the area of the mass transfer surface of intestinal segment concerned (cm^2).

[2] = Apparent oil-water partition coefficient, shake-flask method; assay type: physicochemical; conditions: n-octanol / phosphate buffer pH 1.2-9.0, 37 °C; Kow = log Co/(Ct−Co)
Description: The equilibrium partitioning of C1, C2, C3, C4, DC1, and DC2 between organic lipid and water (Kow) was determined in our study by the traditional shake-flask method (SFM). Briefly, 0.5 mL of each saponin standard working solution (100 µg·mL^−1 in water-saturated n-octanol) was accurately measured into 5 mL centrifuge tubes, and spiked with 0.5 mL of different phosphate buffer solutions (pH: 1.2, 2.0, 3.6, 5.8, 6.8, 7.4, 7.8, and 9.0), respectively. After vortex-mixing for 45 min, the tubes were kept in a temperature-stable horizontal shaking bath (37 °C) for 24 h, and then centrifuged at 13,000 rpm for 10 min. Two hundred microliters of organic supernatant solution was measured, diluted with 800 µL of methanol, and mixed well. Ten microliters of the final solution was injected into the HPLC system (detailed experimental conditions and method validation results were not shown) for determination of the drug concentration in the n-octanol phase. The Kow values of the six saponins were calculated according to the following mathematical expression:(3) Kow=logCo/Ct−Co where Ct is the total concentration of the drug, and Co is the concentration of the drug in n-octanol phase.

[3] = test system: rat duodenum; assay: SPIP of MDQ-TS with or without amantadine (endocytosis inhibitor); assay type: in vivo; conditions: MDQ-TS 2.5 mg/mL; for decrease of absorption compared with non-Amantadine added group: amantadine 2.5 mmol·L^−1
Description: as §1, §2
as §3, with “(cm^2). […]” for “(cm^2).”

[4] = MDQ-TS form 1.25 mg·mL^−1, duodenum, n = 5
[5] = MDQ-TS form 1.25 mg·mL^−1, ileum, n = 5
[6] = MDQ-TS form 1.25 mg·mL^−1, jejunum, n = 5
[7] = MDQ-TS form 2.5 mg·mL^−1, duodenum, n = 5
[8] = MDQ-TS form 2.5 mg·mL^−1, ileum, n = 5
[9] = MDQ-TS form 2.5 mg·mL^−1, jejunum, n = 5
[10] = MDQ-TS form 5.0 mg·mL^−1, duodenum, n = 5
[11] = MDQ-TS form 5.0 mg·mL^−1, ileum, n = 5
[12] = MDQ-TS form 5.0 mg·mL^−1, jejunum, n = 5
[13] = administrated in MDQ-TS form, summary bound (except DC2 in 1.25 mg·mL^−1 MDQ-TS group)
[14] = MDQ-TS form 1.25 mg·mL^−1, duodenum, symbol
[15] = MDQ-TS form 1.25 mg·mL^−1, ileum, symbol
[16] = MDQ-TS form 1.25 mg·mL^−1, jejunum, symbol

| Compound | Ka [1, 4] | Papp [1, 4] | Ka [1, 5] | Papp [1, 5] | Ka [1, 6] | Papp [1, 6] | Ka [1, 7] | Papp [1, 7] | Ka [1, 8] | Papp [1, 8] | Ka [1, 9] | Papp [1, 9] | Ka [1, 10] | Papp [1, 10] | Ka [1, 11] | Papp [1, 11] | Ka [1, 12] | Papp [1, 12] | Papp [1, 13] [cm/min] | apparent oil-water partition coefficient (Kow) [2] | also measured |
| --- | --- | --- | --- | --- | --- | --- | --- | --- | --- | --- | --- | --- | --- | --- | --- | --- | --- | --- | --- | --- | --- |
| C[C@@H]1O[C@@H](O[C@H]2[C@H](O[C@H]3[C@H](O[C@H]4CC[C@]5(C)[C@H]6CC=C7[C@H]8[C@](C(=O)O)(CC[C@H](C)[C@@]8(C)O)CC[C@@]7(C)[C@]6(C)CC[C@H]5C4(C)C)OC[C@@H](O)[C@@H]3O)O[C@H](CO)[C@@H](O)[C@@H]2O)[C@H](O)[C@H](O)[C@H]1O [C4, ilexsaponin B2] | 1.04 ± 0.31 ×10^−2 min^−1 | 0.20 ± 0.09 ×10^−2 cm·min^−1 | 0.83 ± 0.28 ×10^−2 min^−1 | 0.14 ± 0.04 ×10^−2 cm·min^−1 | 0.84 ± 0.47 ×10^−2 min^−1 | 0.14 ± 0.05 ×10^−2 cm·min^−1 | 1.94 ± 0.50 ×10^−2 min^−1 | 0.42 ± 0.05 ×10^−2 cm·min^−1 | 2.53 ± 0.29 ×10^−2 min^−1 | 0.40 ± 0.03 ×10^−2 cm·min^−1 | 3.19 ± 0.56 ×10^−2 min^−1 | 0.49 ± 0.03 ×10^−2 cm·min^−1 | 1.87 ± 0.86 ×10^−2 min^−1 | 0.40 ± 0.22 ×10^−2 cm·min^−1 | 1.52 ± 0.92 ×10^−2 min^−1 | 0.26 ± 0.15 ×10^−2 cm·min^−1 | 1.92 ± 0.61 ×10^−2 min^−1 | 0.45 ± 0.18 ×10^−2 cm·min^−1 | > 0.0012 | −1 to 2 | decrease of absorption compared with non-Amantadine added group [3]: 31% |
| C[C@@H]1O[C@@H](O[C@H]2[C@H](O[C@H]3[C@H](O[C@H]4CC[C@]5(C)[C@H]6CC=C7[C@H]8[C@](C(=O)O[C@@H]9O[C@H](CO)[C@@H](O)[C@H](O)[C@H]9O)(CC[C@H](C)[C@@]8(C)O)CC[C@@]7(C)[C@]6(C)CC[C@H]5C4(C)C)OC[C@@H](O)[C@@H]3O)O[C@H](CO)[C@@H](O)[C@@H]2O)[C@H](O)[C@H](O)[C@H]1O [DC2, ilexoside O] |  |  |  |  |  |  | 0.62 ± 0.13 ×10^−2 min^−1 | 0.16 ± 0.06 ×10^−2 cm·min^−1 | 1.54 ± 0.85 ×10^−2 min^−1 | 0.19 ± 0.08 ×10^−2 cm·min^−1 | 1.23 ± 0.46 ×10^−2 min^−1 | 0.21 ± 0.08 ×10^−2 cm·min^−1 | 1.27 ± 0.44 ×10^−2 min^−1 | 0.25 ± 0.16 ×10^−2 cm·min^−1 | 1.14 ± 0.45 ×10^−2 min^−1 | 0.19 ± 0.07 ×10^−2 cm·min^−1 | 1.73 ± 0.66 ×10^−2 min^−1 | 0.26 ± 0.17 ×10^−2 cm·min^−1 | > 0.0012 | −1 to 2 | Ka [1, 14]: -; Papp [1, 14]: -; Ka [1, 15]: -; Papp [1, 15]: -; Ka [1, 16]: -; Papp [1, 16]: -; decrease of absorption compared with non-Amantadine added group [3]: 100%; absorption when co-perfusion with Amantadine ([3]; amantadine 2.5 mmol·L^−1, result in words): completely inhibited |
| ilexsaponin B3 [DC1] | 0.56 ± 0.17 ×10^−2 min^−1 | 0.13 ± 0.05 ×10^−2 cm·min^−1 | 0.59 ± 0.35 ×10^−2 min^−1 | 0.22 ± 0.13 ×10^−2 cm·min^−1 | 0.46 ± 0.21 ×10^−2 min^−1 | 0.23 ± 0.15 ×10^−2 cm·min^−1 | 1.76 ± 0.44 ×10^−2 min^−1 | 0.34 ± 0.08 ×10^−2 cm·min^−1 | 1.65 ± 0.33 ×10^−2 min^−1 | 0.16 ± 0.07 ×10^−2 cm·min^−1 | 1.99 ± 0.49 ×10^−2 min^−1 | 0.35 ± 0.08 ×10^−2 cm·min^−1 | 1.53 ± 0.55 ×10^−2 min^−1 | 0.30 ± 0.13 ×10^−2 cm·min^−1 | 1.21 ± 0.58 ×10^−2 min^−1 | 0.21 ± 0.11 ×10^−2 cm·min^−1 | 2.05 ± 0.72 ×10^−2 min^−1 | 0.32 ± 0.19 ×10^−2 cm·min^−1 | > 0.0012 | −1 to 2 | decrease of absorption compared with non-Amantadine added group [3]: 53% |
| C[C@H]1CC[C@]2(C(=O)O)CC[C@]3(C)C(=CC[C@@H]4[C@@]5(C)CC[C@H](O[C@@H]6OC[C@@H](O)[C@H](O)[C@H]6O[C@@H]6O[C@H](CO)[C@@H](O)[C@H](O)[C@H]6O)C(C)(C)[C@@H]5CC[C@]43C)[C@@H]2[C@]1(C)O [C3, ilexsaponin B1] | 1.16 ± 0.26 ×10^−2 min^−1 | 0.24 ± 0.10 ×10^−2 cm·min^−1 | 1.04 ± 0.11 ×10^−2 min^−1 | 0.18 ± 0.01 ×10^−2 cm·min^−1 | 0.94 ± 0.12 ×10^−2 min^−1 | 0.17 ± 0.04 ×10^−2 cm·min^−1 | 2.19 ± 0.52 ×10^−2 min^−1 | 0.36 ± 0.06 ×10^−2 cm·min^−1 | 3.77 ± 0.41 ×10^−2 min^−1 | 0.42 ± 0.03 ×10^−2 cm·min^−1 | 3.82 ± 0.49 ×10^−2 min^−1 | 0.40 ± 0.13 ×10^−2 cm·min^−1 | 1.80 ± 0.97 ×10^−2 min^−1 | 0.39 ± 0.24 ×10^−2 cm·min^−1 | 1.66 ± 0.95 ×10^−2 min^−1 | 0.29 ± 0.15 ×10^−2 cm·min^−1 | 2.48 ± 0.86 ×10^−2 min^−1 | 0.40 ± 0.24 ×10^−2 cm·min^−1 | > 0.0012 | −1 to 2 |  |
